Reference: patent publication US20240102051A1, “MULTIFUNCTIONAL COPOLYMERIC NANOPARTICLE” (Iran University of Medical Sciences, priority 2021, published 2024)

Tested on: P. aeruginosa
Assay: Antibacterial activity (MIC) against P. aeruginosa
Type: cell-based, Pseudomonas aeruginosa
Protocol: In this example, the antibacterial activity of exemplary multifunctional copolymeric nanoparticles against Gram-negative and Gram-positive strains, including P. aeruginosa, E. coli, S. aureus, and Enterococcus, were investigated based on their minimum bactericidal concentration (MBC) and minimum inhibitory concentration (MIC). Reaction time for synthesis of exemplary multifunctional copolymeric nanoparticles (AX) was varied from 1 hour to 72 hours to fine-tune the antibacterial activity of the exemplary multifunctional copolymeric nanoparticles. FIG. 11 illustrates a chart 1100 for the antibacterial activity of exemplary multifunctional copolymeric nanoparticles synthesized in different reaction times (1, 3, 8, 24, and 72 hours), consistent with one or more exemplary embodiments of the present disclosure.

In the case of gentamicin, the MIC is reported as > 64 µg/mL.
